According to patent US10722491B2, “Phenol compound and combination of same with a benzodiazepine fused to 1,4-dihydropyridine for treating diseases of the central nervous and vascular systems” (UNIVERSIDAD DE LA HABANA, priority 2016, dated 2020):

System: occlusion of the middle cerebral artery in rats
Assay: Transient middle cerebral artery occlusion, cerebral infarct size (TTC)
Assay type: in vivo
Conditions: for Total volume of infarction (percentage of the contralateral hemisphere): 1 hour after reperfusion, 90 min occlusion, 23 h reperfusion, vehicle 27.5%
Procedure: FIG. 13. Acute treatment with KM-34 reduced the volume of infarction edema and deficit in rat behavior after 90 min of middle cerebral artery occlusion (MACA) and 23 hours of reperfusion. The different doses of the compound were administered orally 1 hour after reperfusion. (A) Representative brain coronal sections (2 mm thick) of the sham and ischemic groups treated with vehicle or KM-34 (0.1, 0.5 or 1 mg/kg) and stained with 2,3,5-triphenyltetrazolium (TTC) 2%. The red regions correspond to undamaged tissue and white to ischemic regions. (B) Quantitative analysis of cortical, subcortical and total lesion size. (C) Neurological deficit. The bars represent the mean ± SEM (n=8). Different letters in (A) and * in (B): p<0.05, by ANOVA and post hoc of Newman-Keuls. Scale=10 mm.
The animals were randomly divided into the following groups (n=8 per group): (1) vehicle treated ischemia/reperfusion (I/R) control, (2) KM-34 treated I/R 0.1 mg/kg, (3) I/R treated with KM-34 0.5 mg/kg, (4) I/R treated with KM-34 1 mg/kg, (5) sham-operated vehicle treated and (6) sham—With KM-34 1 mg/kg. In all cases the treatment was administered orally (with an intragastric cannula). […]
Transient cerebral ischemia was performed by the OACM, using the intraluminal filament method. […] After 23 hours of reperfusion, the neurological deficit was evaluated and the animals sacrificed to determine the infarct volume and perform the behavioral evaluations.
Cerebral infarction was determined by staining with TTC, a colorless compound in solution but which, when reduced by dehydrogenases of functional mitochondria, forms a red brick formazan salt. […]
The animals were anesthetized again after the neurological evaluation and were perfused transcardially with 20 mL of saline at 4° C. […] The edema index (volume of the hemisphere ipsilateral to the OACM/volume of the contralateral hemisphere) and the volume of corrected infarction (volume of the lesion/edema index) were calculated to avoid overestimation of the infarct volume by cerebral edema. Infarct volume was expressed as a percentage of the contralateral hemisphere.

CC1(C)OC(=O)C(=Cc2ccc(O)c(O)c2)C(=O)O1 [KM-34, 5-[(3,4-dihydroxyphenyl)methylidene]-2,2-dimethyl-1,3-dioxane-4,6-dione]
Total volume of infarction (percentage of the contralateral hemisphere) (0.5 mg/kg oral): 15.7%
Total volume of infarction (percentage of the contralateral hemisphere) (1 mg/kg oral): 5.3%
Tissue damage or behavioral alterations under basal conditions (sham group (without OACM), KM-34 1 mg/kg oral): no sign of tissue damage or behavioral alterations
